Columns and labels:
Assay type in all cases: functional, Homo sapiens
Set-up in all cases: dose or concentration left out as unconfirmed
Colon cancer organoid [1] = assay: Optimized Dual-Glo assay to identify co-culture induced drug vulnerabilities using donated chemical probes and chemogenomics kinase set in O06 CRC organoid and F06 CAF mono and co-culture. […] Cell viability is reported both mono and co-culture models.
Colon cancer organoid [2] = assay: Optimized Dual-Glo assay to identify co-culture induced drug vulnerabilities using donated chemical probes and chemogenomics kinase set in O14 CRC organoid and F14 CAF mono and co-culture. […] Cell viability is reported both mono and co-culture models.
Colon cancer organoid [3] = assay: Optimized Dual-Glo assay to identify co-culture induced drug vulnerabilities using donated chemical probes and chemogenomics kinase set in O20 CRC organoid and F20 CAF mono and co-culture. […] Cell viability is reported both mono and co-culture models.
[4] = Culture type Co-Culture, Transduced with Lucferase2-P2A-EGFP lentivirus
[5] = Culture type Co-Culture, Transduced with Renilla-dsRed lentivirus
[6] = Culture type Mono-Culture, Transduced with Lucferase2-P2A-EGFP lentivirus
[7] = Culture type Mono-Culture, Transduced with Renilla-dsRed lentivirus

Row | Structure (SMILES) | Cell Viability (Colon cancer organoid [1]; [4]) | Cell Viability (Colon cancer organoid [1]; [5]) | Cell Viability (Colon cancer organoid [1]; [6]) | Cell Viability (Colon cancer organoid [1]; [7]) | Cell Viability (Colon cancer organoid [2]; [4]) | Cell Viability (Colon cancer organoid [2]; [5]) | Cell Viability (Colon cancer organoid [2]; [6]) | Cell Viability (Colon cancer organoid [2]; [7]) | Cell Viability (Colon cancer organoid [3]; [4]) | Cell Viability (Colon cancer organoid [3]; [5]) | Cell Viability (Colon cancer organoid [3]; [6]) | Cell Viability (Colon cancer organoid [3]; [7])
1 | CCc1ccccc1C(=O)Nc1n[nH]c2c(C)c(F)c(C3C(C#N)=C(C)N(C)C(C)=C3C#N)cc12 [BAY-3827] | 80.578% | 109.489% | 83.7184% | 82.828% | 89.6646% | 118.565% | 81.9788% | 77.2526% | 74.4041% | 157.673% | 58.8443% | 110.691%
2 | Cn1cc(Cl)c2c(Oc3c(F)cc(Nc4cc(Cl)nc(N)n4)cc3F)ccnc21 [BAY-4900] | 121.536% | 149.241% | 59.0633% | 101.592% | 109.877% | 85.9396% | 108.551% | 92.3665% | 91.184% | 109.2% | 84.5951% | 91.9324%
3 | Cc1c(N2CCCC2)nc2ccc(Br)cc2c1C(=O)NC[C@H](CCC(=O)O)c1ccccc1Cl [BAY-6672] | 132.373% | 142.298% | 78.4477% | 99.1733% | 130.472% | 109.165% | 108.929% | 91.644% | 83.0644% | 119.315% | 90.6805% | 98.6918%
4 | COc1ccc(Oc2cc(NCCC(F)(F)F)c3ncc(-c4ccc(C(=O)NC5CC5)c(C)c4)n3n2)c(F)c1F [BAY-1217389] | 5.893% | 100.303% | 6.114% | 52.2962% | 15.963% | 131.783% | 28.3238% | 88.2574% | 10.1003% | 184.891% | 6.085% | 72.716%
5 | CC(=O)N1CCC(c2ccc(C(=O)NC3=NCCN3)cc2C(F)(F)F)CC1 [BI 0054] | 128.003% | 143.254% | 114.863% | 104.942% | 129.436% | 116.761% | 105.472% | 102.083% | 121.714% | 122.015% | 116.125% | 107.845%

From ChEMBL document CHEMBL5674860, “Optimized Dual-Glo Assay to identify co-culture-induced drug vulnerabilities in 3D CRC models” (2024)
